Reference: patent US20110081405A1, “Zeolite Formulation And Use Thereof For The Prevention And Therapy Of Diseases Caused By Infections With Herpes Simplex Virus Type 1 And Type 2” (priority 2008, published 2011)

Columns and labels:
[1] = system: HSV-2 (strain G); assay: Viral plaque inhibition assay, zeolite coincubated with HSV-2, supernatants added to cells; type: cell-based; conditions: keratinocytes, supernatants of HSV-2 coincubated 18 hours with 5 μg/ml zeolite or 50 μg/ml Acyclovir, Mordenite 0.1-0.5 μm, P, X, A 0.5-5 μm
Protocol: (§1) Testing of Antiviral Activities of Synthetic Zeolites by the Viral Plaque Inhibition Assay—the Antiviral Activity of Zeolites when Coincubated with HSV In Vitro
(§2) Epidermal cell cultures of fibroblasts and keratinocytes were grown in vitro from healthy skin samples, remnants from operations. Fibroblast cultures were grown in Dulbecco modified Eagle's medium (DMEM) containing Glutamax I (L-alanin-L-glutamine) and sodium pyruvate, […] and pyridoxine, supplemented with 10% fetal calf serum (FCS), 0.25 μg gentamycin and 100 UI/L penicillin. Keratinocytes are grown in a mixture of DMEM, Hams F12 in the 3:1 ratio with the addition of Glutamax I, complemented with 9% of FCS, epidermal growth factor (EGF), insulin, hydrocortisone, triiodothyronine, adenine, and antibiotics. The antiviral effect was determined on primary cells (primary fibroblasts and keratinocytes) grown in vitro from the explants of healthy skin, and also on cell lines: fibroblasts cell line MRC-5, HEp-2 cell line, and Vero cell line.
(§3) MRC-5, Vero, HEp-2, and keratinocyte cell lines were all obtained from the American Type Culture Collection-ATCC, and grown in T-75 flasks at 37° C. in a humidified incubator with 5% CO2.
(§4) HSV-1 (strain F) and HSV-2 (strain G), both obtained from the ATCC, were propagated in HEp-2 cells and their titres checked in same cells (H. Kirchner, C. Kleinicke, H. Northoff. J. Gen. Virol. 1977, 37, 647.). 0.1, 0.5, 1, 2, 4, or 5 Multiplicity of infection (MOI) of HSV-1 or HSV-2 was used to infect Vero cells, keratinocyte cell lines and MRC-5 cell lines, as described below.
(§5) Synthetic zeolites: A, Mordenite, P and X were tested in vitro for an anti HSV activity. Mordenite was used in two characteristic size of particles (0.1-0.5 μm and 0.5-5 μm) and other zeolites in 0.5-5 μm particle size. Zeolites were used in the concentrations of 5, 50, 500 ng/ml; 1, 5, 50, 100, 500 μg/ml; 1, 2, 10, 50 mg/ml in growth medium.
(§6) The ability of HSV preincubated with zeolite to infect cells permissive to infection (permissive cells) and cell lines was tested in in vitro experiments.
(§7) Viral stock containing the HSV-1 or HSV-2 (in MOI described above), diluted in a minimal volume of growth medium containing 5% FCS was used for the coincubation with zeolite for 3-20 hours at 4° C. The pH was maintained at all times to be at around 7.00. The sterile cuvettes containing zeolite+HSV were then centrifuged at 4.000 rpm/30 minutes to remove any particulate content in supernatants. Those supernatants (in 200 μl volume) were then added to the MRC-5, HEp-2, or Vero cell lines (grown in 24 well plate to 85% confluency) for 1 hour at 37° C. Parallel cultures contained cells infected with 200 μl of HSV-1 or HSV-2 under the same conditions as for the addition of supernatants (above). After one hour incubation, the growth medium containing 9% FCS was added, and cells cultivated for another 3 days (to examine for any CPE by light microscopy). Growth medium was then aspirated from the wells, and 100 μl of 0.2% crystal violet dye, diluted in phosphate buffered saline (PBS), was added to each well. After half-hour exposure to the dye, the wells were washed twice with double distilled water, air-dried, and the HSV plaques in cell cultures were counted using Olympus light microscope (magnification of 40×). The CPE produced by the infection of permissive cells was characterised by morphological changes in host cells e.g. cell rounding, swelling, detachment from the surface, formation of syncicia, plaques, caused by the increased number of newly formed viral particles. Plaques formed by HSV destroying cells were easily distinguished from unaffected cell layers.

[2] = system: HSV-1 (strain F); assay: Viral plaque inhibition assay, zeolite coincubated with HSV-1, supernatants added to cells; type: cell-based; conditions: keratinocytes, supernatants of HSV-1 coincubated 18 hours with 5 μg/ml zeolite or 50 μg/ml Acyclovir, Mordenite 0.1-0.5 μm, P, X, A 0.5-5 μm
Protocol: as §1, §2, §3, §4, §5, §6, §7

[3] = background statement; cited from earlier work

Row | SMILES | decrease in percentage of number of HSV-2 plaques ([1]; 0.1 MOI) [%] | decrease in percentage of number of HSV-2 plaques ([1]; 0.5 MOI) [%] | decrease in percentage of number of HSV-2 plaques ([1]; 1 MOI) [%] | decrease in percentage of number of HSV-2 plaques ([1]; 2 MOI) [%] | decrease in percentage of number of HSV-2 plaques ([1]; 4 MOI) [%] | decrease in percentage of number of HSV-2 plaques ([1]; 5 MOI) [%] | decrease in number of HSV-1 plaques ([2]; 0.1 MOI) | decrease in number of HSV-1 plaques ([2]; 0.5 MOI) | decrease in number of HSV-1 plaques ([2]; 1 MOI) | decrease in number of HSV-1 plaques ([2]; 2 MOI) | decrease in number of HSV-1 plaques ([2]; 4 MOI) | decrease in number of HSV-1 plaques ([2]; 5 MOI) | biavalibility of the drug [3] [%]
1 | Nc1nc2c(ncn2COCCO)c(=O)[nH]1 [Acyclovir, 9-[(2-hydroxyetoxy)methyl]guanine] | 73 | 72 | 70 | 65 | 48 | 42 | 71 | 71 | 61 | 58 | 43 | 36 | 
2 | CC(=O)OCC(CCn1cnc2cnc(N)nc21)COC(C)=O [famcyclovir] |  |  |  |  |  |  |  |  |  |  |  |  | 77
3 | CC(C)[C@H](N)C(=O)OCCOCn1cnc2c(=O)[nH]c(N)nc21 [valacyclovir] |  |  |  |  |  |  |  |  |  |  |  |  | 55
